From US20180312493A1, “Antibiotic Compounds, Pharmaceutical Formulations Thereof And Methods And Uses Therefor” (Simon Fraser University, priority 2015, published 2018)
pIC50: −log10 of the molar value. In brackets after ≈: the same amount, converted by molar mass.

Assays:
MRSA Pyk = target: T1, MRSA Pyk (Staphylococcus aureus, UniProt Q6GG09); experiment: MRSA pyruvate kinase (PK) activity, continuous LDH-coupled assay; format: biochemical, methicillin resistant S. aureus (MRSA252)
T1 construct: made in house; host or cells: E. coli BL-21 (DE3)
In short: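 Activity monitored continuously as absorbance change at 340 nm from NADH oxidation via coupled lactate dehydrogenase, reactions started with 15 nM recombinant His-tagged PK (MRSA or human isoform) and run at 30° C for up to 5 min. Ki derived by varying inhibitor (0-400 nM) and PEP (2-20 mM) at 2 mM ADP; IC50 by four-parameter fitting.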

S. aureus (ATCC29213) = experiment: In vitro susceptibility, broth microdilution (MIC); format: cell-based; conditions: Staphylococcus aureus; S. aureus ATCC29213; 18-24 h, 37 C; read-out: Antimicrobial activity (MIC) S. aureus ATCC29213
In short: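 CLSI 2-fold serial broth microdilution; K. pneumoniae C238 grown in L-broth, S. aureus ATCC 29213 in Mueller Hinton broth, plates incubated 18–24 h at 37 °C. MIC taken as lowest concentration giving complete growth inhibition by OD600 versus compound-free wells, background-subtracted.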

[1] = tested on: A. baumannii (ATCC 19606); experiment: In vitro susceptibility, broth microdilution (MIC); format: cell-based; conditions: Acinetobacter baumannii, ATCC19606; A. baumannii ATCC 19606 (values without asterisk); read-out: Antimicrobial activity (MIC) A. baumannii
Description: (§1) Epidemic methicillin resistant S. aureus (MRSA) strain sequenced at the Sanger Centre (MRSA252, NRS71) was obtained from NARSA (Network on Antimicrobial Resistance in S. aureus). Methicillin sensitive S. aureus (ATCC 29213 and 25923), methicillin resistant S. aureus (ATCC BAA-1762), and Salmonella typhimurium (ATCC BAA-185) were obtained from ATCC, The Global Bioresource Center. Acinetobacter baumannii (ATCC 19606 and ATCC 17978), Klebsiella pneumonia (C238), vancomycin resistant Enterococci #2 (2010A) (VRE#2), MRSA (USA400, MW2) and Pseudomonas aeruginosa (PA0-1) were obtained from the laboratory of Dr B. B. Finlay at the University of British Columbia (Vancouver, Canada).
(§2) The antimicrobial activities of PK inhibitor candidates were determined using the 96-well microtiter standard 2-fold serial broth microdilution method as described by CLSI (formerly NCCLS) with the various gram-positive and gram-negative bacteria species mentioned above. Bacteria from a single colony were grown, overnight in either BHI Broth (VRE), mueller hinton broth (S. aureus 29213; MRSA USA400, A. baumannii 19606, MRSA BAA-1762) or L-broth (P. aeruginosa, S. typhimurium, K. pneumonia and A. baumannii 17978). Each compound was prepared in DMSO with 2-fold serial dilutions to give a final concentration of, 0.031 to 64 μg/ml. 10 μl of the compound solution was then added, in duplicate, to either, 190 μl of cation adjusted mueller hinton broth (CAMHB) or 190 μl CAMHB containing ˜2.5×10^5 CFU/ml of bacteria (final compound concentration 0.031 to 64 μg/ml). Culture plates were incubated for 18-24 h at 37° C., and optical density at 600 nm (OD600) was measured using a Benchmark Plus™ microplate spectrophotometer (Bio-Rad™). The absorbance control values for the series containing CAMHB and inhibitor were subtracted as background from the corresponding infected wells. Minimal inhibitory concentration (MIC) was defined as the lowest concentration of test compound leading to complete inhibition of cell growth in relation to compound-free control wells as determined by optical density. Vancomycin, methicillin and ciprofloxicin were used as reference compounds. All assays were run in triplicate or duplicate. Experiments were replicated at least twice to verify reproducibility using the above conditions.

MRSA (ATCC BAA-1762) = experiment: In vitro susceptibility, broth microdilution (MIC); format: cell-based, methicillin resistant S. aureus; conditions: Staphylococcus aureus; MRSA ATCC BAA-1762; read-out: Antimicrobial activity (MIC) MRSA ATCC BAA1762
Description: as §1, §2

VRE#2 (2010A) = experiment: In vitro susceptibility, broth microdilution (MIC); format: cell-based, vancomycin resistant Enterococci; conditions: VRE#2 (2010A); read-out: Antimicrobial activity (MIC) VRE#2
Description: as §1, §2

T1 sequence (Q6GG09 whole entry): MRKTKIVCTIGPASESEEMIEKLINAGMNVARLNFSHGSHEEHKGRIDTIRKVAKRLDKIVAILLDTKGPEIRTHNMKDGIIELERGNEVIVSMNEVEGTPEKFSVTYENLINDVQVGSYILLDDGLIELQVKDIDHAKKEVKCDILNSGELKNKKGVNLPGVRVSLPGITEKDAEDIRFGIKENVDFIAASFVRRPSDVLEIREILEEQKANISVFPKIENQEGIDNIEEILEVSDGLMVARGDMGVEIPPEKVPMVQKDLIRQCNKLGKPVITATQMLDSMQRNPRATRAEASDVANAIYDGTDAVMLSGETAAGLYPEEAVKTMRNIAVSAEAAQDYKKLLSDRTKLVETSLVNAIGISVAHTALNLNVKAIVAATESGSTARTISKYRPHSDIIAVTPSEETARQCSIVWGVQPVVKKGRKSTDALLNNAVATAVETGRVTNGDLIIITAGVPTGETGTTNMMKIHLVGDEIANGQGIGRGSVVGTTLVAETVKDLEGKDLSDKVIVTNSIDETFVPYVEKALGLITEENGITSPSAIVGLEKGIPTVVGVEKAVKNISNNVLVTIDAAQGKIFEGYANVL

Compound	pIC50 (MRSA Pyk)	MIC (S. aureus (ATCC29213))	MIC [1]	MIC (MRSA (ATCC BAA-1762))	MIC (VRE#2 (2010A))
CN(C)CCNCCNC(=O)c1c(-c2cc3cc(Cl)ccc3[nH]2)[nH]c2cc(Br)ccc12 [Compound 126, 6-Bromo-5′-chloro-N-(2-((2-(dimethylamino)ethyl)amino)ethyl)-1H,1′H-[2,2′-biindole]-3-carboxamide]	> 7.00	16 µg/mL (≈ 31.8 µM)	32 µg/mL (≈ 63.6 µM)	16 µg/mL (≈ 31.8 µM)	8 µg/mL (≈ 15.9 µM)
C[n+]1cccc(CNC(=O)c2c(-c3cc4cc(Cl)ccc4[nH]3)[nH]c3cc(Br)ccc23)c1 [Compound 148, 3-((6-bromo-5′-chloro-1H,1′H-[2,2′-biindole]-3-carboxamido)methyl)-1-methylpyridin-1-ium]	> 7.00	8 µg/mL	> 64 µg/mL	16 µg/mL	16 µg/mL
CC(C)(C)NC(=O)Nc1nc2cc(Br)ccc2s1 [Compound 173, 1-(5-bromobenzo[d]thiazol-2-yl)-3-(tert-butyl)urea]	–	16 µg/mL (≈ 48.7 µM)	> 64 µg/mL	16 µg/mL (≈ 48.7 µM)	32 µg/mL (≈ 97.5 µM)
COCCN1CCC(NCCNC(=O)c2c(-c3cc4cc(Cl)ccc4[nH]3)[nH]c3cc(Br)ccc23)CC1 [Compound 124, 6-Bromo-5′-chloro-N-(2-((1-(2-methoxyethyl)piperidin-4-yl)amino)ethyl)-1H,1′H-[2,2′-biindole]-3-carboxamide]	> 7.00	8 µg/mL (≈ 14 µM)	16 µg/mL (≈ 27.9 µM)	8 µg/mL (≈ 14 µM)	8 µg/mL (≈ 14 µM)
CN1CCCN(CCCCNC(=O)c2c(-c3cc4cc(Cl)ccc4[nH]3)[nH]c3cc(Br)ccc23)CC1 [Compound 117, 6-Bromo-5′-chloro-N-(4-(4-methyl-1,4-diazepan-1-yl)butyl)-1H,1′H-[2,2′-biindole]-3-carboxamide]	> 7.00	8 µg/mL (≈ 14.4 µM)	32 µg/mL (≈ 57.5 µM)	8 µg/mL (≈ 14.4 µM)	8 µg/mL (≈ 14.4 µM)
C[N+](C)(CCO/N=C(/c1c(-c2cc3cc(Cl)ccc3[nH]2)[nH]c2cc(Br)ccc12)C(F)(F)F)CC(=O)[O-] [Compound 223, 2-((2-(((1-(6-Bromo-5′-chloro-1H,1′H-[2,2′-biindol]-3-yl)-2,2,2-trifluoroethylidene)amino)oxy)ethyl)dimethylammonio)acetate]	6.00 to 7.00	16 µg/mL (≈ 27.3 µM)	> 64 µg/mL	8 µg/mL (≈ 13.7 µM)	8 µg/mL (≈ 13.7 µM)
CN(C)CCON=C(c1c(-c2cc3cc(Cl)ccc3[nH]2)[nH]c2cc(Br)ccc12)C(F)(F)F (racemic) [Compound 220, 1-(6-Bromo-5′-chloro-1H,1′H-[2,2′-biindol]-3-yl)-2,2,2-trifluoroethan-1-one O-(2-(dimethylamino)ethyl)oxime]	> 7.00	2 µg/mL (≈ 3.79 µM)	> 64 µg/mL	2 µg/mL (≈ 3.79 µM)	2 µg/mL (≈ 3.79 µM)
CC(C)(C)NCCNC(=O)c1c(-c2cc3cc(Cl)ccc3[nH]2)[nH]c2cc(Br)ccc12 [Compound 138, 6-Bromo-N-(2-(tert-butylamino)ethyl)-5′-chloro-1H,1′H-[2,2′-biindole]-3-carboxamide]	> 7.00	4 µg/mL (≈ 8.2 µM)	64 µg/mL (≈ 131 µM)	8 µg/mL (≈ 16.4 µM)	4 µg/mL (≈ 8.2 µM)
O=C(Nc1nc2cc(Br)ccc2s1)NC1CCCCCC1 [Compound 174, 1-(5-bromobenzo[d]thiazol-2-yl)-3-cycloheptylurea]	–	1 µg/mL (≈ 2.72 µM)	> 64 µg/mL	1 µg/mL (≈ 2.72 µM)	1 µg/mL (≈ 2.72 µM)
COCCN1CCCN(CCNC(=O)c2c(-c3cc4cc(Cl)ccc4[nH]3)[nH]c3cc(Br)ccc23)CC1 [Compound 130, 6-bromo-5′-chloro-N-(2-(4-(2-methoxyethyl)-1,4-diazepan-1-yl)ethyl)-1H,1′H-2,2′-biindole-3-carboxamide]	> 7.00	16 µg/mL (≈ 27.9 µM)	> 64 µg/mL	16 µg/mL (≈ 27.9 µM)	16 µg/mL (≈ 27.9 µM)
Nc1ccc(NC(=O)Nc2nc3cc(Br)ccc3s2)cc1 [Compound 160, 1-(4-aminophenyl)-3-(5-bromobenzo[d]thiazol-2-yl)urea]	–	4 µg/mL (≈ 11 µM)	> 64 µg/mL	4 µg/mL (≈ 11 µM)	8 µg/mL (≈ 22 µM)
OCCOc1cc2[nH]c(-c3cc4ccc(Br)cc4[nH]3)cc2cc1Cl [Compound 196, 2-((6′-Bromo-5-chloro-1H,1′H-[2,2′-biindol]-6-yl)oxy)ethan-1-ol]	> 7.00	16 µg/mL (≈ 39.4 µM)	> 64 µg/mL	8 µg/mL (≈ 19.7 µM)	> 64 µg/mL
O=C(Nc1nc2cc(Br)ccc2s1)NC1CCCCC1 [Compound 159, 1-(5-bromobenzo[d]thiazol-2-yl)-3-cyclohexylurea]	–	2 µg/mL (≈ 5.65 µM)	> 64 µg/mL	1 µg/mL (≈ 2.82 µM)	–
CN(C)CC(=O)OCCOc1cc2[nH]c(-c3cc4ccc(Br)cc4[nH]3)cc2cc1Cl [Compound 197, 2-((6′-Bromo-5-chloro-1H,1′H-[2,2′-biindol]-6-yl)oxy)ethyl Dimethylglycinate]	> 7.00	8 µg/mL (≈ 16.3 µM)	> 64 µg/mL	8 µg/mL (≈ 16.3 µM)	8 µg/mL (≈ 16.3 µM)
CN(C)CC(=O)Nc1ccc(NC(=O)Nc2nc3cc(Br)ccc3s2)cc1 [Compound 161, N-(4-(3-(5-bromobenzo[d]thiazol-2-yl)ureido)phenyl)-2-(dimethylamino)acetamide]	–	16 µg/mL (≈ 35.7 µM)	> 64 µg/mL	8 µg/mL (≈ 17.8 µM)	16 µg/mL (≈ 35.7 µM)
O=C(Nc1ccc(Cl)cc1)Nc1nc2cc(F)ccc2s1 [Compound 166, 1-(4-chlorophenyl)-3-(5-fluorobenzo[d]thiazol-2-yl)urea]	–	1 µg/mL (≈ 3.11 µM)	> 64 µg/mL	0.5 µg/mL (≈ 1.55 µM)	0.5 µg/mL (≈ 1.55 µM)
CCNC(=O)Nc1nc2cc(Br)ccc2s1 [Compound 176, 1-(5-bromobenzo[d]thiazol-2-yl)-3-ethylurea]	–	8 µg/mL (≈ 26.7 µM)	> 64 µg/mL	8 µg/mL (≈ 26.7 µM)	16 µg/mL (≈ 53.3 µM)
NC(=O)N1CCCN(CCNC(=O)c2c(-c3cc4cc(Cl)ccc4[nH]3)[nH]c3cc(Br)ccc23)CC1 [Compound 128, 6-bromo-N-(2-(4-carbamoyl-1,4-diazepan-1-yl)ethyl)-5′-chloro-1H,1′H-2,2′-biindole-3-carboxamide]	–	> 64 µg/mL	> 64 µg/mL	–	> 64 µg/mL
O=C(Nc1ccc(Cl)cc1)Nc1nc2cc(C(F)(F)F)ccc2s1 [Compound 169, 1-(4-chlorophenyl)-3-(5-(trifluoromethyl)benzo[d]thiazol-2-yl)urea]	–	1 µg/mL (≈ 2.69 µM)	> 64 µg/mL	0.5 µg/mL (≈ 1.34 µM)	2 µg/mL (≈ 5.38 µM)
O=C(Nc1ccc(Cl)cc1)Nc1nc2cc(Oc3ccccc3)ccc2s1 [Compound 168, 1-(4-chlorophenyl)-3-(5-phenoxybenzo[d]thiazol-2-yl)urea]	–	1 µg/mL (≈ 2.53 µM)	> 64 µg/mL	1 µg/mL (≈ 2.53 µM)	16 µg/mL (≈ 40.4 µM)
O=C(Nc1ccc(Cl)cc1)Nc1nc2cc(Cl)ccc2s1 [Compound 172, 1-(5-chlorobenzo[d]thiazol-2-yl)-3-(4-chlorophenyl)urea]	–	0.5 µg/mL (≈ 1.48 µM)	> 64 µg/mL	0.5 µg/mL (≈ 1.48 µM)	1 µg/mL (≈ 2.96 µM)
CC(C)(C)NCCNC(=O)COc1cc2[nH]c(-c3cc4ccc(Br)cc4[nH]3)cc2cc1Cl [Compound 193, 2-((6′-Bromo-5-chloro-1H,1′H-[2,2′-biindol]-6-yl)oxy)-N-(2-(tert-butylamino)ethyl)acetamide]	> 7.00	> 64 µg/mL	> 64 µg/mL	–	–
